± gives the expanded uncertainty stated by the source.
Experiment: refractive index (Na D-line) (dimensionless); φn = volume fraction of the nth substance listed
Conditions: 101 kPa, Liquid, Standard Abbe refractometry

Question: With `C=C[Si]1(C)O[Si](C)(C=C)O[Si](C)(C=C)O[Si](C)(C=C)O1` (stereo not given) [2,4,6,8-tetramethyl-2,4,6,8-tetravinylcycloterasiloxane] + CCc1ccccc1 as the compound, how does the refractive index (288.15 K, φ1 = 0.1306) read?
Answer: The refractive index was 1.49051 ± 0.00031.

Question: And the refractive index (288.15 K, φ1 = 0.2495)?
Answer: Its refractive index is 1.48332 ± 0.00031.

Question: And the refractive index (288.15 K, φ1 = 0.3353)?
Answer: Its refractive index is 1.47811 ± 0.00031.

Question: What about the refractive index (288.15 K, φ1 = 0.4168) of the same compound?
Answer: The refractive index was 1.47313 ± 0.00031.

Question: What about the refractive index (288.15 K, φ1 = 0.4874) of the same compound?
Answer: Its refractive index is 1.46879 ± 0.00032.

Question: What about the refractive index (288.15 K, φ1 = 0.5524) of the same compound?
Answer: Its refractive index is 1.46478 ± 0.00032.

Question: What about the refractive index (288.15 K, φ1 = 0.5993) of the same compound?
Answer: The refractive index was 1.46188 ± 0.00032.

Question: What about the refractive index (288.15 K, φ1 = 0.6539) of the same compound?
Answer: The refractive index was 1.45851 ± 0.00032.

Question: And the refractive index (288.15 K, φ1 = 0.699)?
Answer: The refractive index was 1.4557 ± 0.0003.

Question: What about the refractive index (288.15 K, φ1 = 0.7394) of the same compound?
Answer: Its refractive index is 1.4532 ± 0.0003.

Question: And the refractive index (288.15 K, φ1 = 0.7767)?
Answer: Its refractive index is 1.45085 ± 0.00032.

Question: And the refractive index (288.15 K, φ1 = 0.809)?
Answer: The refractive index was 1.44885 ± 0.00032.

Question: And the refractive index (288.15 K, φ1 = 0.8409)?
Answer: Its refractive index is 1.44681 ± 0.00032.

Question: What about the refractive index (288.15 K, φ1 = 0.8663) of the same compound?
Answer: Its refractive index is 1.44522 ± 0.00032.

Question: And the refractive index (288.15 K, φ1 = 0.8945)?
Answer: The refractive index was 1.44344 ± 0.00032.

Question: And the refractive index (288.15 K, φ1 = 0.9191)?
Answer: Its refractive index is 1.44188 ± 0.00032.

Question: What about the refractive index (288.15 K, φ1 = 0.9412) of the same compound?
Answer: Its refractive index is 1.44049 ± 0.00032.

Question: What about the refractive index (288.15 K, φ1 = 0.9806) of the same compound?
Answer: Its refractive index is 1.43796 ± 0.00033.

Question: What about the refractive index (288.15 K, φ1 = 1) of the same compound?
Answer: The refractive index was 1.43674 ± 0.00033.

Question: What about the refractive index (298.15 K, φ1 = 0.1307) of the same compound?
Answer: The refractive index was 1.48523 ± 0.00031.

Question: What about the refractive index (298.15 K, φ1 = 0.2495) of the same compound?
Answer: Its refractive index is 1.47811 ± 0.00031.

Question: What about the refractive index (298.15 K, φ1 = 0.3353) of the same compound?
Answer: The refractive index was 1.47292 ± 0.00031.

Question: And the refractive index (298.15 K, φ1 = 0.4168)?
Answer: The refractive index was 1.46801 ± 0.00031.

Question: What about the refractive index (298.15 K, φ1 = 0.4875) of the same compound?
Answer: The refractive index was 1.4637 ± 0.0003.

Question: What about the refractive index (298.15 K, φ1 = 0.5525) of the same compound?
Answer: The refractive index was 1.45974 ± 0.00032.

Question: What about the refractive index (298.15 K, φ1 = 0.5994) of the same compound?
Answer: The refractive index was 1.45688 ± 0.00032.

Question: What about the refractive index (298.15 K, φ1 = 0.654) of the same compound?
Answer: The refractive index was 1.45353 ± 0.00032.

Question: And the refractive index (298.15 K, φ1 = 0.699)?
Answer: Its refractive index is 1.45075 ± 0.00032.

Question: And the refractive index (298.15 K, φ1 = 0.7394)?
Answer: Its refractive index is 1.44826 ± 0.00032.

Question: And the refractive index (298.15 K, φ1 = 0.7767)?
Answer: Its refractive index is 1.44594 ± 0.00032.

Question: And the refractive index (298.15 K, φ1 = 0.809)?
Answer: The refractive index was 1.44397 ± 0.00032.

Question: And the refractive index (298.15 K, φ1 = 0.8409)?
Answer: Its refractive index is 1.44197 ± 0.00032.

Question: And the refractive index (298.15 K, φ1 = 0.8663)?
Answer: Its refractive index is 1.44039 ± 0.00032.

Question: And the refractive index (298.15 K, φ1 = 0.8945)?
Answer: The refractive index was 1.43862 ± 0.00032.

Question: And the refractive index (298.15 K, φ1 = 0.9191)?
Answer: The refractive index was 1.43709 ± 0.00032.

Question: And the refractive index (298.15 K, φ1 = 0.9412)?
Answer: Its refractive index is 1.4357 ± 0.0003.

Question: What about the refractive index (298.15 K, φ1 = 0.9806) of the same compound?
Answer: Its refractive index is 1.43323 ± 0.00033.

Question: And the refractive index (298.15 K, φ1 = 1)?
Answer: The refractive index was 1.43202 ± 0.00033.

Question: And the refractive index (308.15 K, φ1 = 0.1307)?
Answer: Its refractive index is 1.47983 ± 0.00031.

Question: What about the refractive index (308.15 K, φ1 = 0.2496) of the same compound?
Answer: Its refractive index is 1.47276 ± 0.00031.

Question: What about the refractive index (308.15 K, φ1 = 0.3354) of the same compound?
Answer: Its refractive index is 1.46765 ± 0.00031.

Question: And the refractive index (308.15 K, φ1 = 0.4168)?
Answer: Its refractive index is 1.46276 ± 0.00031.

Question: What about the refractive index (308.15 K, φ1 = 0.4875) of the same compound?
Answer: The refractive index was 1.45851 ± 0.00032.

Question: What about the refractive index (308.15 K, φ1 = 0.5525) of the same compound?
Answer: The refractive index was 1.4546 ± 0.0003.

Question: And the refractive index (308.15 K, φ1 = 0.5994)?
Answer: The refractive index was 1.4518 ± 0.0003.

Question: What about the refractive index (308.15 K, φ1 = 0.654) of the same compound?
Answer: The refractive index was 1.44849 ± 0.00032.

Question: What about the refractive index (308.15 K, φ1 = 0.6991) of the same compound?
Answer: The refractive index was 1.44574 ± 0.00032.

Question: And the refractive index (308.15 K, φ1 = 0.7395)?
Answer: The refractive index was 1.44331 ± 0.00032.

Question: What about the refractive index (308.15 K, φ1 = 0.7767) of the same compound?
Answer: The refractive index was 1.44103 ± 0.00032.

Question: And the refractive index (308.15 K, φ1 = 0.809)?
Answer: Its refractive index is 1.43906 ± 0.00032.

Question: What about the refractive index (308.15 K, φ1 = 0.841) of the same compound?
Answer: The refractive index was 1.43711 ± 0.00032.

Question: What about the refractive index (308.15 K, φ1 = 0.8663) of the same compound?
Answer: The refractive index was 1.43554 ± 0.00032.

Question: And the refractive index (308.15 K, φ1 = 0.8946)?
Answer: The refractive index was 1.43382 ± 0.00032.

Question: And the refractive index (308.15 K, φ1 = 0.9191)?
Answer: The refractive index was 1.4323 ± 0.0003.

Question: And the refractive index (308.15 K, φ1 = 0.9412)?
Answer: The refractive index was 1.43092 ± 0.00032.

Question: And the refractive index (308.15 K, φ1 = 0.9806)?
Answer: Its refractive index is 1.42848 ± 0.00033.

Question: And the refractive index (308.15 K, φ1 = 1)?
Answer: Its refractive index is 1.4273 ± 0.0003.

Question: And the refractive index (318.15 K, φ1 = 0.1307)?
Answer: Its refractive index is 1.47444 ± 0.00031.

Question: And the refractive index (318.15 K, φ1 = 0.2496)?
Answer: Its refractive index is 1.46745 ± 0.00031.

Question: What about the refractive index (318.15 K, φ1 = 0.3354) of the same compound?
Answer: The refractive index was 1.46234 ± 0.00031.

Question: And the refractive index (318.15 K, φ1 = 0.4169)?
Answer: Its refractive index is 1.45752 ± 0.00031.

Question: And the refractive index (318.15 K, φ1 = 0.4875)?
Answer: The refractive index was 1.45331 ± 0.00032.

Question: What about the refractive index (318.15 K, φ1 = 0.5525) of the same compound?
Answer: Its refractive index is 1.44944 ± 0.00032.

Question: And the refractive index (318.15 K, φ1 = 0.5994)?
Answer: Its refractive index is 1.4467 ± 0.0003.

Question: What about the refractive index (318.15 K, φ1 = 0.654) of the same compound?
Answer: Its refractive index is 1.44344 ± 0.00032.

Question: And the refractive index (318.15 K, φ1 = 0.6991)?
Answer: Its refractive index is 1.44073 ± 0.00032.

Question: What about the refractive index (318.15 K, φ1 = 0.7395) of the same compound?
Answer: Its refractive index is 1.43832 ± 0.00032.

Question: And the refractive index (318.15 K, φ1 = 0.7768)?
Answer: The refractive index was 1.43607 ± 0.00032.

Question: And the refractive index (318.15 K, φ1 = 0.8091)?
Answer: Its refractive index is 1.43412 ± 0.00032.

Question: And the refractive index (318.15 K, φ1 = 0.841)?
Answer: Its refractive index is 1.43222 ± 0.00032.

Question: What about the refractive index (318.15 K, φ1 = 0.8663) of the same compound?
Answer: The refractive index was 1.43067 ± 0.00032.

Question: What about the refractive index (318.15 K, φ1 = 0.8946) of the same compound?
Answer: The refractive index was 1.42898 ± 0.00032.

Question: And the refractive index (318.15 K, φ1 = 0.9191)?
Answer: Its refractive index is 1.42747 ± 0.00032.

Question: And the refractive index (318.15 K, φ1 = 0.9412)?
Answer: Its refractive index is 1.42613 ± 0.00032.

Question: And the refractive index (318.15 K, φ1 = 0.9806)?
Answer: Its refractive index is 1.42373 ± 0.00033.

Question: And the refractive index (318.15 K, φ1 = 1)?
Answer: Its refractive index is 1.42257 ± 0.00033.

Question: What about the refractive index (328.15 K, φ1 = 0.1307) of the same compound?
Answer: Its refractive index is 1.46899 ± 0.00031.

Question: And the refractive index (328.15 K, φ1 = 0.2496)?
Answer: The refractive index was 1.46201 ± 0.00031.

Question: And the refractive index (328.15 K, φ1 = 0.3354)?
Answer: The refractive index was 1.45699 ± 0.00031.

Question: And the refractive index (328.15 K, φ1 = 0.4169)?
Answer: The refractive index was 1.45223 ± 0.00031.

Question: And the refractive index (328.15 K, φ1 = 0.4875)?
Answer: Its refractive index is 1.44807 ± 0.00032.

Question: What about the refractive index (328.15 K, φ1 = 0.5525) of the same compound?
Answer: The refractive index was 1.44422 ± 0.00032.

Question: And the refractive index (328.15 K, φ1 = 0.5994)?
Answer: The refractive index was 1.44159 ± 0.00032.

Question: What about the refractive index (328.15 K, φ1 = 0.654) of the same compound?
Answer: The refractive index was 1.43836 ± 0.00032.

Question: What about the refractive index (328.15 K, φ1 = 0.6991) of the same compound?
Answer: The refractive index was 1.43564 ± 0.00032.

Question: And the refractive index (328.15 K, φ1 = 0.7395)?
Answer: The refractive index was 1.4333 ± 0.0003.

Question: And the refractive index (328.15 K, φ1 = 0.7768)?
Answer: Its refractive index is 1.43112 ± 0.00032.

Question: What about the refractive index (328.15 K, φ1 = 0.8091) of the same compound?
Answer: Its refractive index is 1.4292 ± 0.0003.

Question: What about the refractive index (328.15 K, φ1 = 0.841) of the same compound?
Answer: The refractive index was 1.42729 ± 0.00032.

Question: And the refractive index (328.15 K, φ1 = 0.8663)?
Answer: Its refractive index is 1.42578 ± 0.00032.

Question: What about the refractive index (328.15 K, φ1 = 0.8946) of the same compound?
Answer: Its refractive index is 1.42413 ± 0.00032.

Question: And the refractive index (328.15 K, φ1 = 0.9191)?
Answer: Its refractive index is 1.42266 ± 0.00032.

Question: And the refractive index (328.15 K, φ1 = 0.9412)?
Answer: Its refractive index is 1.42133 ± 0.00032.

Question: What about the refractive index (328.15 K, φ1 = 0.9806) of the same compound?
Answer: The refractive index was 1.41899 ± 0.00033.

Question: And the refractive index (328.15 K, φ1 = 1)?
Answer: The refractive index was 1.41785 ± 0.00033.

Reference: the NIST ThermoML archive (doi:10.1016/j.jct.2012.08.010)
